# Source: patent US20040038226A1, “Transgenic animal model by mineralocorticoid receptor antisense expression” (priority 2000, published 2004)
# Molecular target: T1, mMR (Mus musculus, UniProt Q8VII8)
# T1 construct: the level of expression of the endogenous mMR observed in the control males; endogenous in cells; host or cells: whole mice in vivo: double transgenic alphaMHC-tTA/MR animals, with cardiac mMR mRNA lowered by about 50% by the antisense, and wild or single transgenic controls
# T1 sequence (Q8VII8 1-978): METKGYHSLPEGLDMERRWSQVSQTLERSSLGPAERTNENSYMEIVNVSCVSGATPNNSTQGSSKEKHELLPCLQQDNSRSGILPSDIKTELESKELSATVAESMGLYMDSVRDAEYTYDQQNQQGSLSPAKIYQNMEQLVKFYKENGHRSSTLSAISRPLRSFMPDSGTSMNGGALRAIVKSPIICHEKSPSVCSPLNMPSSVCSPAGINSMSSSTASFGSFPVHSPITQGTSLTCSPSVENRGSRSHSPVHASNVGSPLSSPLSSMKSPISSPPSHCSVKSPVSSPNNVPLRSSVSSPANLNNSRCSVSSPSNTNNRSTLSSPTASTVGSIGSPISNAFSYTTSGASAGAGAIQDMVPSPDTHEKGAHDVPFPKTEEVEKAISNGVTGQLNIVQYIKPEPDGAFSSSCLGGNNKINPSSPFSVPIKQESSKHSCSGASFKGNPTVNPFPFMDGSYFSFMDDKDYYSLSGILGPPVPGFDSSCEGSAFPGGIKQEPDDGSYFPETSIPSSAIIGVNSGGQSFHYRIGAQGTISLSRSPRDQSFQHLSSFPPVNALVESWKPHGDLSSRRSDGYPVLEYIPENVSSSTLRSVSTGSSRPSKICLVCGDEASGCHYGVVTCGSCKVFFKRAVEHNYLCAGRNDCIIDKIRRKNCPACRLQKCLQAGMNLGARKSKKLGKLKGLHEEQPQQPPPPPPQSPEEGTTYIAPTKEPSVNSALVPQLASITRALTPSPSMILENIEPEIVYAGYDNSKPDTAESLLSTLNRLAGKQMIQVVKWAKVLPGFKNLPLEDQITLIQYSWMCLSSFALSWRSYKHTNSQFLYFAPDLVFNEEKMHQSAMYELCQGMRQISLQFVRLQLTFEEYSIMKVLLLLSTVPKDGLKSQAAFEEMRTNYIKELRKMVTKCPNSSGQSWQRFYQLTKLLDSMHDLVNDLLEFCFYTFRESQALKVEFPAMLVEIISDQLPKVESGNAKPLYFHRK
# Assay: Administration of spironolactone to control animals (wild or single transgenic)
# Format: in vivo, mice
# Settings: 30 mg/kg/day
smiles,measurement,value
CC(=O)S[C@@H]1CC2=CC(=O)CC[C@]2(C)[C@H]2CC[C@@]3(C)[C@@H](CC[C@@]34CCC(=O)O4)[C@H]12 [spironolactone],functional or structural alteration of the heart,does not produce any functional or structural alteration
